Tested on: DMS 114 tumor spheroids, viability % test/control
Assay: Anticancer human tumor DMS 114 cell line growth inhibition;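 further: spheroids exposed to compounds for 7 days before read-out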;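 on viability, T/C: luminescence used as a proxy for viable cells; 100% = DMSO vehicle control viability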
Conditions: spheroids with HUVEC and MSC; for IC50: curve of first compound; for viability, T/C: stronger effect = lower value
In short: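 Single agents and combinations were tested on spheroids built from tumor cells plus HUVEC and hMSC, at half-log dilutions starting at or near clinical Cmax, else 10 microM; final DMSO 0.25% (v/v).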

CNCc1ccc(-c2cc(-c3nc(-c4ccc(S(=O)(=O)C(C)C)cc4)cnc3N)on2)cc1 + COc1cc2c(cc1O)CCNC21CSC2c3c(OC(C)=O)c(C)c4c(c3C(COC1=O)N1C(O)C3Cc5cc(C)c(OC)c(O)c5C(C21)N3C)OCO4
IC50 (second compound 30 pM): 0.115 µM
IC50 (second compound 94.9 pM): 0.065 µM
IC50 (second compound 0.0003 µM): < 0.00949 µM
IC50 (second compound 0.000949 µM): < 0.00949 µM
IC50 (second compound 0.003 µM): < 0.00949 µM
viability, T/C (second compound 30 pM, first compound 0.00949 µM): 96.4%
viability, T/C (second compound 30 pM, first compound 0.03 µM): 94.3%
viability, T/C (second compound 30 pM, first compound 0.0949 µM): 53.1%
viability, T/C (second compound 30 pM, first compound 0.3 µM): 20.8%
viability, T/C (second compound 30 pM, first compound 0.949 µM): 2.84%
viability, T/C (second compound 30 pM, first compound 3 µM): 0.19%
viability, T/C (second compound 94.9 pM, first compound 0.00949 µM): 93.9%
viability, T/C (second compound 94.9 pM, first compound 0.03 µM): 70.5%
viability, T/C (second compound 94.9 pM, first compound 0.0949 µM): 41.3%
viability, T/C (second compound 94.9 pM, first compound 0.3 µM): 12.2%
viability, T/C (second compound 94.9 pM, first compound 0.949 µM): 2.28%
viability, T/C (second compound 94.9 pM, first compound 3 µM): 0.17%
viability, T/C (second compound 0.0003 µM, first compound 0.00949 µM): 38.6%
viability, T/C (second compound 0.0003 µM, first compound 0.03 µM): 28.3%
viability, T/C (second compound 0.0003 µM, first compound 0.0949 µM): 17.8%
viability, T/C (second compound 0.0003 µM, first compound 0.3 µM): 11.7%
viability, T/C (second compound 0.0003 µM, first compound 0.949 µM): 1.89%
viability, T/C (second compound 0.0003 µM, first compound 3 µM): 0.25%
viability, T/C (second compound 0.000949 µM, first compound 0.00949 µM): 4.46%
viability, T/C (second compound 0.000949 µM, first compound 0.03 µM): 4.77%
viability, T/C (second compound 0.000949 µM, first compound 0.0949 µM): 3.57%
viability, T/C (second compound 0.000949 µM, first compound 0.3 µM): 3.71%
viability, T/C (second compound 0.000949 µM, first compound 0.949 µM): 0.67%
viability, T/C (second compound 0.000949 µM, first compound 3 µM): 0.15%
viability, T/C (second compound 0.003 µM, first compound 0.00949 µM): 0.28%
viability, T/C (second compound 0.003 µM, first compound 0.03 µM): 0.28%
viability, T/C (second compound 0.003 µM, first compound 0.0949 µM): 0.31%
viability, T/C (second compound 0.003 µM, first compound 0.3 µM): 0.26%
viability, T/C (second compound 0.003 µM, first compound 0.949 µM): 0.23%
viability, T/C (second compound 0.003 µM, first compound 3 µM): 0.25%

Cc1cc(C)c(CNC(=O)c2cc(-c3ccc(CN4CCOCC4)cc3)cc3c2cnn3C2CCCC2)c(=O)[nH]1 + COc1cc2c(cc1O)CCNC21CSC2c3c(OC(C)=O)c(C)c4c(c3C(COC1=O)N1C(O)C3Cc5cc(C)c(OC)c(O)c5C(C21)N3C)OCO4
IC50 (second compound 30 pM): > 10 µM
IC50 (second compound 94.9 pM): > 10 µM
IC50 (second compound 0.0003 µM): < 0.0316 µM
IC50 (second compound 0.000949 µM): < 0.0316 µM
IC50 (second compound 0.003 µM): < 0.0316 µM
viability, T/C (second compound 30 pM, first compound 0.0316 µM): 112%
viability, T/C (second compound 30 pM, first compound 0.1 µM): 100%
viability, T/C (second compound 30 pM, first compound 0.316 µM): 104%
viability, T/C (second compound 30 pM, first compound 1 µM): 113%
viability, T/C (second compound 30 pM, first compound 3.16 µM): 115%
viability, T/C (second compound 30 pM, first compound 10 µM): 73.2%
viability, T/C (second compound 94.9 pM, first compound 0.0316 µM): 113%
viability, T/C (second compound 94.9 pM, first compound 0.1 µM): 108%
viability, T/C (second compound 94.9 pM, first compound 0.316 µM): 112%
viability, T/C (second compound 94.9 pM, first compound 1 µM): 102%
viability, T/C (second compound 94.9 pM, first compound 3.16 µM): 98.6%
viability, T/C (second compound 94.9 pM, first compound 10 µM): 52.1%
viability, T/C (second compound 0.0003 µM, first compound 0.0316 µM): 40.1%
viability, T/C (second compound 0.0003 µM, first compound 0.1 µM): 35.8%
viability, T/C (second compound 0.0003 µM, first compound 0.316 µM): 48.1%
viability, T/C (second compound 0.0003 µM, first compound 1 µM): 38.8%
viability, T/C (second compound 0.0003 µM, first compound 3.16 µM): 41.4%
viability, T/C (second compound 0.0003 µM, first compound 10 µM): 35.6%
viability, T/C (second compound 0.000949 µM, first compound 0.0316 µM): 2.74%
viability, T/C (second compound 0.000949 µM, first compound 0.1 µM): 3.63%
viability, T/C (second compound 0.000949 µM, first compound 0.316 µM): 3.61%
viability, T/C (second compound 0.000949 µM, first compound 1 µM): 3.83%
viability, T/C (second compound 0.000949 µM, first compound 3.16 µM): 3.94%
viability, T/C (second compound 0.000949 µM, first compound 10 µM): 4.03%
viability, T/C (second compound 0.003 µM, first compound 0.0316 µM): 0.31%
viability, T/C (second compound 0.003 µM, first compound 0.1 µM): 0.33%
viability, T/C (second compound 0.003 µM, first compound 0.316 µM): 0.32%
viability, T/C (second compound 0.003 µM, first compound 1 µM): 0.44%
viability, T/C (second compound 0.003 µM, first compound 3.16 µM): 0.34%
viability, T/C (second compound 0.003 µM, first compound 10 µM): 0.4%
